Measurements published in article PMC12172621 (ACS chemical neuroscience, 2024).
pEC50, pKi: −log10 of the molar value. Where “and” joins values, the source holds several entries; their conditions need not be identical. Equal entries are not always repeated. Where two headings read alike, the source gives them in different places.

Legend:
[1] = tested on: cultured hippocampal neurons exposed to purified RML PrP^Sc; assay type: cell-based
[2] = tested on: total PrP (PrP^C) in uninfected N2a cells; assay type: cell-based, mouse
[3] = in vitro; settings: mouse
[4] = tested on: PK-resistant PrP in Sigmar1 + Tmem97 KO cells; assay type: cell-based, mouse
[5] = tested on: PK-resistant PrP (PrP^Sc) in ScN2a-RML cells; assay type: cell-based, mouse; settings: read-out: EC50, effective concentration for 50% reduction of PrP^Sc levels in ScN2a-RML cells
[6] = biological target: sigma-1 receptor (σ1R, Sigmar1) (Homo sapiens, UniProt Q99720); experiment: biochemical; assay type: binding
Chain of sigma-1 receptor (σ1R, Sigmar1) (Q99720 whole entry, species assumed): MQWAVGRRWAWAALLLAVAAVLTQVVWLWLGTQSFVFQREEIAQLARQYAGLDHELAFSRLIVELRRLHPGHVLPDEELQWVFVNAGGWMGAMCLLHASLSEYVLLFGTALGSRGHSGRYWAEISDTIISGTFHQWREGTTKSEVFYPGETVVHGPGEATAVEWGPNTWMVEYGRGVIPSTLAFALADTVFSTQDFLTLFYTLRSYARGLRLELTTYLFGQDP

[7] = biological target: sigma-2 receptor (σ2R, Tmem97) (Homo sapiens, UniProt Q5BJF2); experiment: biochemical; assay type: binding
Chain of sigma-2 receptor (σ2R, Tmem97) (Q5BJF2 whole entry, species assumed): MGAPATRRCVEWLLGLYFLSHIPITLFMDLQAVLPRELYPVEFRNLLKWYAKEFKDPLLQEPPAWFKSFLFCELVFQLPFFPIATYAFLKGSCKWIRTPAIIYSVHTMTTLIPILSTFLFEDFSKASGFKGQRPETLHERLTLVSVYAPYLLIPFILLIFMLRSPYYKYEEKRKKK

[8] = tested on: PK-resistant PrP in N2a cells chronically infected with 22L prions; assay type: cell-based, mouse
[9] = tested on: PK-resistant PrP in Rosa26-targeted ScN2a cells; assay type: cell-based, mouse
[10] = tested on: ScN2a-RML cells
[11] = cited from earlier work
[12] = tested on: seeding activity of RML prions on recombinant bank vole PrP; assay type: biochemical; settings: 2× the EC50 (79 μM)
[13] = tested on: PK-resistant PrP in Hrh1^0/0 cells

For `O=C(CCCN1CCC(O)(c2ccc(Cl)cc2)CC1)c1ccc(F)cc1` [haloperidol], the “Mean number of dendritic spines/μm” value [1] was 0.85 ± 0.03 spines/μm and 0.73 ± 0.04 spines/μm and the “Levels of total PrP compared to DMSO treatment” value [2] was 92.0 ± 3.5%.

For `OC(CCCN1CCN(c2ncc(F)cn2)CC1)c1ccc(F)cc1` (stereo not drawn) [BMY-14802], the CC50 [3] was > 50 µM.

For `CCCN1CCC=C(c2cc(-c3ccc(C)cc3)no2)C1` [PD 144418], the “[SRA]min, minimum concentration capable of preventing hippocampal spine retraction” value (from here on “[SRA]min, minimum concentration capable”) [1] was 10 µM, the “Levels of PK-resistant PrP relative to DMSO-treated controls” value [4] was 56.6 ± 5.8% and the “Levels of total PrP compared to DMSO treatment” value [2] was 97.5 ± 4.8%. For the same compound, the pEC50 [5] was 5.28, the “Selectivity for σ1R (σ1R/σ2R)” value [6] was “σ1R (319.1 x)” and the pKi ([6]; read-out: Kiσ1R) was 8.96. The pKi ([7]; read-out: Kiσ2R) was 6.45, the pEC50 ([8]; read-out: EC50 against 22L prions) was 4.90 and the “Levels of PK-resistant PrP relative to DMSO-treated controls” value [9] was 81.1 ± 5.0%. The CC50 [10] was > 22 µM and the “TI, therapeutic index (LC50/EC50)” value [10] was >4.2.

For `Cc1ccccc1NC(=N)Nc1ccccc1C` [DTG, ditolylguanidine], the CC50 [3] was > 50 µM.

In the case of `CN(C)CC1CCOC1(c1ccccc1)c1ccccc1` (stereo not drawn) [ANAVEX2–73, Blarcamesine], the “Levels of PK-resistant PrP relative to DMSO-treated controls” value ([4]; 39.5 μM) is given as 57.9 ± 9.0%, the “Tolerability in phase II trials” value ([11]; Alzheimer’s and Parkinson’s diseases) is given as “well tolerated” and the CC50 [3] is given as > 50 µM. The pKi [6] was 6.35, the “Selectivity for σ1R (σ1R/σ2R)” value [6] was “σ1R (4.5 x)” and the pKi [7] was 5.69. For the same compound, the “Lag phase in RT-QuIC” value [12] was “slight increase in the lag phase”, the “Levels of PK-resistant PrP relative to DMSO-treated controls” value [9] was 70.4 ± 1.1% and 42.6 ± 1.7% and the “TI, therapeutic index (LC50/EC50)” value ([10]; mouse) was >1.3. For the same compound, the “Levels of PK-resistant PrP relative to DMSO-treated controls” value [13] was 25.7 ± 6.2%.

In the case of `CC(C)=CCN1CC[C@]2(C)c3cc(O)ccc3C[C@H]1[C@H]2C` [(+)-pentazocine], the CC50 [3] was > 50 µM.

With `CN1CCN(CCc2ccc(Cl)c(Cl)c2)CC1` [BD1063] the “Mean number of dendritic spines/μm” value [1] was 0.69 ± 0.03 spines/μm and 0.63 ± 0.03 spines/μm, the “[SRA]min, minimum concentration capable” value [1] was 1 µM and the “Levels of PK-resistant PrP relative to DMSO-treated controls” value [4] was 60.3 ± 4.0%. For the same compound, the “Levels of total PrP compared to DMSO treatment” value ([2]; 12.3 μM) was 85.8 ± 4.4%, the pEC50 [5] was 4.91 and the “Selectivity for σ1R (σ1R/σ2R)” value [6] was “σ1R (45.7 x)”. For the same compound, the pKi ([6]; read-out: Kiσ1R) was 8.57, the pKi ([7]; read-out: Kiσ2R) was 6.91 and the “Levels of PK-resistant PrP relative to DMSO treatment” value [8] was 63.3 ± 1.2%. The CC50 [10] was > 50 µM, the “TI, therapeutic index (LC50/EC50)” value [10] was >4.1 and the “Levels of PK-resistant PrP relative to DMSO-treated controls” value [13] was 42.6 ± 6.7%.

In the case of `C[C@@H]1CN(CCCn2c3ccccc3c3ccccc32)C[C@H](C)N1` [rimcazole], the “Mean number of dendritic spines/μm” value [1] was 0.86 ± 0.02 spines/μm and 0.82 ± 0.02 spines/μm, the “[SRA]min, minimum concentration capable” value [1] was 0.5 µM and the CC50 [3] was 10 µM. It also gave a pKi [7] of 7.30.

For `COc1ccc(CCN2CCN(CCCc3ccccc3)CC2)cc1OC` [SA 4503, Cutamesine], the pEC50 [5] is listed as 4.57, the “Tolerability in phase II trial” value ([11]; ischemic stroke) is listed as “well tolerated” and the pKi ([7]; read-out: Kiσ2R) is listed as 7.76. For the same compound, the CC50 [10] was > 50 µM.

In the case of `COc1cccc2c1CCCC2CCCN1CCN(C2CCCCC2)CC1` (stereo not drawn) [PB-28], the “[SRA]min, minimum concentration capable” value [1] was 0.1 µM, the “Levels of total PrP compared to DMSO treatment” value [2] was 85.3 ± 3.4% and the pEC50 [5] was 5.29. It also gave a CC50 [10] of 7.8 µM.

In the case of `CCCCc1oc2ccccc2c1C(=O)c1cc(I)c(OCCN(CC)CC)c(I)c1` [amiodarone], the pKi [7] was 6.77.

For `CN(C)CCN(C)CCc1ccc(Cl)c(Cl)c1` [BD1047], the “Mean number of dendritic spines/μm” value [1] was 0.74 ± 0.02 spines/μm and 0.78 ± 0.04 spines/μm, the “[SRA]min, minimum concentration capable” value [1] was 0.5 µM and the “Levels of total PrP compared to DMSO treatment” value ([2]; 19 μM) was 94.9 ± 0.9%. The pEC50 [5] was 4.72, the pKi ([7]; read-out: Kiσ2R) was 7.89 and the CC50 [10] was > 25 µM.
